According to article PMC10112504, “Novel 4-thiophenyl-pyrazole, pyridine, and pyrimidine derivatives as potential antitumor candidates targeting both EGFR and VEGFR-2; design, synthesis, biological evaluations, and in silico studies” (RSC Advances, 2023):

Tests used:
P. aeuroginosa = assay: Antibacterial activity, inhibition zone approach; type: cell-based, Pseudomonas aeuroginosa; conditions: for P. aeuroginosa Diameter of inhibition zone (mm): Gram-negative bacteria; for antimicrobial activity with P. aeuroginosa, in words: authors' grading of Table 2 values, key not given; for P. aeuroginosa % Activity index: gentamicin = 100
VEGFR-2 = VEGFR-2 (Homo sapiens, UniProt P35968); assay: VEGFR-2 inhibitory activity, homogeneous luminescence release assay; type: biochemical; conditions: reference sorafenib; read-out: VEGFR-2 inhibition IC50
Chain of VEGFR-2 (P35968 20-1356): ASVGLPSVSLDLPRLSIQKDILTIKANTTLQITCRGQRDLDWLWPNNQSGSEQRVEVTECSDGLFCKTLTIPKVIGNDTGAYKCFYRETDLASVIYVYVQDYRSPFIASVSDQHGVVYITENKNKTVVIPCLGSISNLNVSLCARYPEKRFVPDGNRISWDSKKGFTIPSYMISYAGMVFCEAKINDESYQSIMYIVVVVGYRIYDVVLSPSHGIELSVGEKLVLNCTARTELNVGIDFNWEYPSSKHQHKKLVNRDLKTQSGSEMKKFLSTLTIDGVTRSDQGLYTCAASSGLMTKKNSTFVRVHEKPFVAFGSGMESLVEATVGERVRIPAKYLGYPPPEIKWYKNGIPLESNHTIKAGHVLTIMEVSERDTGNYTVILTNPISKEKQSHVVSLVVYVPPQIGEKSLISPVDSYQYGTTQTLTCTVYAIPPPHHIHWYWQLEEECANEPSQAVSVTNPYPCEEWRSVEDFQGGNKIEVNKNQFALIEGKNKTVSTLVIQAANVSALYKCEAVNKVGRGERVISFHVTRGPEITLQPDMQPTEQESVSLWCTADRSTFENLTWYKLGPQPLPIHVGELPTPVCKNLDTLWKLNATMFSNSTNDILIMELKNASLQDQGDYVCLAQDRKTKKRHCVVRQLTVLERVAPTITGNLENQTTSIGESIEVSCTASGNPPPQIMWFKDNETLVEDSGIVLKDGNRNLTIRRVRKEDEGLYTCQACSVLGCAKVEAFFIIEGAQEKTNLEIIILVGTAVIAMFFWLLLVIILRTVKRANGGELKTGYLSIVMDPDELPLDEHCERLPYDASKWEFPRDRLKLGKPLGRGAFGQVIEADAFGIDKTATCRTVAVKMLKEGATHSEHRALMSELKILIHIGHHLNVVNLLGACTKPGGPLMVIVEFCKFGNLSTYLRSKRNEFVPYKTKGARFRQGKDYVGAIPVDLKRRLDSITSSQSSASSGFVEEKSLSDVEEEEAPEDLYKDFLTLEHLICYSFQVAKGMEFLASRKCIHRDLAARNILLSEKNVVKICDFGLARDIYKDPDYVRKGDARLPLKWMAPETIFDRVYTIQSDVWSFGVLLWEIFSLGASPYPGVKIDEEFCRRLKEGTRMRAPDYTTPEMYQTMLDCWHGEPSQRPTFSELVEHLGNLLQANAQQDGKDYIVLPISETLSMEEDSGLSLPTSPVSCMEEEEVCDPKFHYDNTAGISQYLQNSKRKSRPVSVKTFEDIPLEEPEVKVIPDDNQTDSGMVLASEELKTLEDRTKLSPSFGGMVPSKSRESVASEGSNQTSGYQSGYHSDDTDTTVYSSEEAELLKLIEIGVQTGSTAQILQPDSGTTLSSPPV
From the text: […]. Briefly, these μM inhibitory concentrations recommend greatly the proposed rationale design for the investigated compounds to act as promising dual EGFR/VEGFR-2 inhibitors.

B. subtilis = assay: Antibacterial activity, inhibition zone approach; type: cell-based, Bacillus subtilis; conditions: for B. subtilis Diameter of inhibition zone (mm): Gram-positive bacteria; for antimicrobial activity with B. subtilis, in words: authors' grading of Table 2 values, key not given; for B. subtilis % Activity index: gentamicin = 100
EGFR = EGFR (Homo sapiens, UniProt P00533); assay: EGFR inhibitory activity, homogeneous luminescence release assay; type: biochemical; conditions: reference erlotinib; read-out: EGFR inhibition IC50
Chain of EGFR (P00533 25-1210): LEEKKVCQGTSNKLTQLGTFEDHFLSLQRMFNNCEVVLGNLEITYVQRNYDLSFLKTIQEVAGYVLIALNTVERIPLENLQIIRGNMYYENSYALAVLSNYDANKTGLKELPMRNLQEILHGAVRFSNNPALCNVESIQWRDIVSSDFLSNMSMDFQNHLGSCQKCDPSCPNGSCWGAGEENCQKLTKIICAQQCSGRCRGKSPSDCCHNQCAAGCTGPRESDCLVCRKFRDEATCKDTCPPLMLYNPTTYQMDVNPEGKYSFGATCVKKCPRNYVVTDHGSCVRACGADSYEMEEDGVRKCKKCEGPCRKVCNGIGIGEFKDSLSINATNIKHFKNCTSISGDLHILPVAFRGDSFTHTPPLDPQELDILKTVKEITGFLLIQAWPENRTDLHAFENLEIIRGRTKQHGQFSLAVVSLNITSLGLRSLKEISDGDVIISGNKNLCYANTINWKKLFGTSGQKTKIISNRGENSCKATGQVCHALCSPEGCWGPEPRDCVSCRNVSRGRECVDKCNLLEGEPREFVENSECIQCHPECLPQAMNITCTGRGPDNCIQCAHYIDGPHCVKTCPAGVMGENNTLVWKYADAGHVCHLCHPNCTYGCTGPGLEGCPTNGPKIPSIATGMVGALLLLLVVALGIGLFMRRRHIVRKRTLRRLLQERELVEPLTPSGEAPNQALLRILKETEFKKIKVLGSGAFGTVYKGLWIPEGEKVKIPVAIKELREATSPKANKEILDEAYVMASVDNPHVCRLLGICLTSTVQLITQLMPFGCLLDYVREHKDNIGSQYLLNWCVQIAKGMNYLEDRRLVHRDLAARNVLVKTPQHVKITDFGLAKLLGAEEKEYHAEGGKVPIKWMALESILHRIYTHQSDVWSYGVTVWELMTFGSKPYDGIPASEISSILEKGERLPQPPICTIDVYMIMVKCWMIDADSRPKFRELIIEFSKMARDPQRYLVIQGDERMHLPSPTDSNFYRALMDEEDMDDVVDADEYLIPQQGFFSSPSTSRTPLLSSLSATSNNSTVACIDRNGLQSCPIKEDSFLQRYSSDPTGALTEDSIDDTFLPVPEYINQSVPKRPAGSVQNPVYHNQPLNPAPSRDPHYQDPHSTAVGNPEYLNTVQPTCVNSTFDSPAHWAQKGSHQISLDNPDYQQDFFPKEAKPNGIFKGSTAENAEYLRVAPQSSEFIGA

S. aureus = assay: Antibacterial activity, inhibition zone approach; type: cell-based, Staphylococcus aureus; conditions: for S. aureus Diameter of inhibition zone (mm): Gram-positive bacteria; for antimicrobial activity with S. aureus, in words: authors' grading of Table 2 values, key not given; for S. aureus % Activity index: gentamicin = 100
E. coli = assay: Antibacterial activity, inhibition zone approach; type: cell-based, Escherichia coli; conditions: for E. coli Diameter of inhibition zone (mm): Gram-negative bacteria; for antimicrobial activity with E. coli, in words: authors' grading of Table 2 values, key not given; for E. coli % Activity index: gentamicin = 100
A. flavus = assay: Antifungal activity, inhibition zone approach; type: cell-based, Aspergillus flavus; conditions: for A. flavus Diameter of inhibition zone (mm): Fungi; for antimicrobial activity with A. flavus, in words: authors' grading of Table 2 values, key not given; for A. flavus % Activity index: ketoconazole = 100
C. albicans = assay: Antifungal activity, inhibition zone approach; type: cell-based, Candida albicans; conditions: for C. albicans Diameter of inhibition zone (mm): Fungi; for antimicrobial activity with C. albicans, in words: authors' grading of Table 2 values, key not given; for C. albicans % Activity index: ketoconazole = 100
MCF-7 = assay: Anti-proliferative activity, SRB colorimetric assay; type: cell-based; conditions: for IC50: Homo sapiens, MCF7, MCF-7 cancer cell line, SRB assay, read-out: Cell lines (IC50 μM) MCF-7; for anti-proliferative activity against MCF-7, in words: authors' grading of Table 1 values, key not given
HepG-2 = assay: Anti-proliferative activity, SRB colorimetric assay; type: cell-based; conditions: for IC50: Homo sapiens, HepG2, HepG-2 cancer cell line, SRB assay, read-out: Cell lines (IC50 μM) HepG-2; for anti-proliferative activity against HepG-2, in words: authors' grading of Table 1 values, key not given

| SMILES | P. aeuroginosa Diameter of inhibition zone (mm) (P. aeuroginosa) | antimicrobial activity with P. aeuroginosa, in words (P. aeuroginosa) | P. aeuroginosa % Activity index (P. aeuroginosa) [%] | B. subtilis Diameter of inhibition zone (mm) (B. subtilis) | antimicrobial activity with B. subtilis, in words (B. subtilis) | B. subtilis % Activity index (B. subtilis) [%] | S. aureus Diameter of inhibition zone (mm) (S. aureus) | antimicrobial activity with S. aureus, in words (S. aureus) | S. aureus % Activity index (S. aureus) [%] | E. coli Diameter of inhibition zone (mm) (E. coli) | antimicrobial activity with E. coli, in words (E. coli) | A. flavus Diameter of inhibition zone (mm) (A. flavus) | A. flavus % Activity index (A. flavus) [%] | C. albicans Diameter of inhibition zone (mm) (C. albicans) | C. albicans % Activity index (C. albicans) [%] | IC50 (MCF-7) [µM] | anti-proliferative activity against MCF-7, in words (MCF-7) | melting point [°C] | IC50 (HepG-2) [µM] | anti-proliferative activity against HepG-2, in words (HepG-2) | other results |
| --- | --- | --- | --- | --- | --- | --- | --- | --- | --- | --- | --- | --- | --- | --- | --- | --- | --- | --- | --- | --- | --- |
| N#Cc1c(-c2cccs2)cc(-c2ccc(O)cc2)nc1N [2a, 2-Amino-6-(4-hydroxyphenyl)-4-(thiophen-2-yl)nicotinonitrile] | 12 | strong | 63.1 | 15 | strong | 68.2 | 10 | moderate | 55.5 | 9 | moderate | 12 | 46.1 | 18 | 64.3 | 9.59 ± 0.8 | very strong | 260 | 8.42 ± 0.6 | very strong | IC50 (VEGFR-2): 195 nM; IC50 (EGFR): 209 nM; E. coli % Activity index (E. coli): 42.8%; antimicrobial activity with A. flavus, in words (A. flavus): moderate; antimicrobial activity with C. albicans, in words (C. albicans): strong |
| N#Cc1c(N)c2c(-c3cccs3)cc(-c3ccc(O)cc3)nc2[nH]c1=O [6a, 4-amino-7-(4-hydroxyphenyl)-2-oxo-5-(thiophen-2-yl)-1,2-dihydro-1,8-naphthyridine-3-carbonitrile] | 7 | – | 36.8 | 9 | – | 40.9 | 5 | – | 27.8 | 4 | – | 8 | 30.8 | 12 | 42.8 | 19.1 ± 1.6 | strong | 260 | 16.2 ± 1.3 | strong | IC50 (EGFR): 326 nM; E. coli % Activity index (E. coli): 19.0% |
| NS(=O)(=O)c1ccc(NC(=O)CN2N=C(c3ccc(O)cc3)CC2c2cccs2)cc1 (stereo not shown) [16a, 2-(3-(4-hydroxyphenyl)-5-(thiophen-2-yl)-4,5-dihydro-1H-pyrazol-1-yl)-N-(4-sulfamoylphenyl)acetamide] | 11 | moderate | 57.9 | 11 | moderate | 50.0 | 8 | moderate | 44.4 | 7 | weak | 12 | 46.1 | 15 | 53.6 | 29.1 ± 2 | moderate | 158 to 160 | 34.5 ± 2.2 | moderate | E. coli % Activity index (E. coli): 33.3%; antimicrobial activity with A. flavus, in words (A. flavus): moderate; antimicrobial activity with C. albicans, in words (C. albicans): moderate |
| CCOC(=O)CSC(=S)N1N=C(c2ccc(O)cc2)CC1c1cccs1 (stereo not shown) [17a, Ethyl 2-((3-(4-hydroxyphenyl)-5-(thiophen-2-yl)-4,5-dihydro-1H-pyrazole-1-carbonothioyl)thio)acetate] | 9 | weak | 47.4 | 11 | weak | 50.0 | 6 | weak | 33.3 | 7 | weak | 8 | 30.8 | 10 | 35.7 | 36.9 ± 2.2 | moderate | 200 | 62.4 ± 3.3 | weak | E. coli % Activity index (E. coli): 33.3%; antimicrobial activity with A. flavus, in words (A. flavus): weak; antimicrobial activity with C. albicans, in words (C. albicans): weak |
| O=C(O)CSC(=S)N1N=C(c2ccc(O)cc2)CC1c1cccs1 (stereo not shown) [19a, 2-((3-(4-Hydroxyphenyl)-5-(thiophen-2-yl)-4,5-dihydro-1H-pyrazole-1-carbonothioyl)thio)acetic acid] | 12 | moderate | 63.1 | 14 | moderate | 63.6 | 10 | moderate | 55.5 | 9 | moderate | 13 | 50.0 | 16 | 57.1 | 14.7 ± 1.2 | strong | 223 to 225 | 28.2 ± 1.9 | moderate | E. coli % Activity index (E. coli): 42.8%; antimicrobial activity with A. flavus, in words (A. flavus): moderate; antimicrobial activity with C. albicans, in words (C. albicans): moderate |
| O=C(CCl)SC(=S)N1N=C(c2ccc(O)cc2)CC1c1cccs1 (stereo not shown) [20a, 2-Chloroacetic-3-(4-hydroxyphenyl)-5-(thiophen-2-yl)-4,5-dihydro-1H-pyrazole-1-carbothioic thioanhydride] | 4 | weak | 21.0 | 6 | weak | 27.3 | 3 | weak | 16.7 | – | weak | 7 | 26.9 | 9 | 32.1 | 56.2 ± 3.3 | weak | 265 | 67.4 ± 3.5 | weak | antimicrobial activity with A. flavus, in words (A. flavus): weak; antimicrobial activity with C. albicans, in words (C. albicans): weak |
